Values joined by “and” are separate entries in the source; they are usually repeats but may differ in a detail not shown here. Equal entries are not always repeated. Structures can show the parent of a compound that is named as a salt.
How the values were obtained:
[1] = system: intraocular pressure; assay: Intraocular pressure changes in vivo after application into the conjunctiva sac (Tono-Pen XL); parameters: species or system rabbit (Chinchilla); details: for Measured intraocular pressure values, RE, 0.5 h / Measured intraocular pressure values, RE, 0.5 h, Average / Measured intraocular pressure values, RE, 1 h, Average / Measured intraocular pressure values, RE, 1 h / Measured intraocular pressure values, RE, 4 h, Average / Measured intraocular pressure values, RE, 4 h / Measured intraocular pressure values, RE, 7 h, Average / Measured intraocular pressure values, RE, 7 h / Measured intraocular pressure values, RE, 25 h, Average / Measured intraocular pressure values, RE, 25 h / Measured intraocular pressure values, RE, 31 h, Average / Measured intraocular pressure values, RE, 31 h: treated right eye
Experimental: The basic pharmacologic profile of the compounds of the general formula (I), which was focused on the determination of the intraocular pressure changes, was evaluated in in vivo conditions. In addition to the main potential therapeutic effect, related side responses were also monitored. In the experiments the laboratory animals of chinchilla species were used, because the normotension eye of this animal species provides the best reactivity. Adult male Chinchilla (in the age of one to one and half year), of 2000-3500 g, examined by veterinarian, without disease symptoms, grown under the standard conditions was used as the animal model. The solutions of tested compounds of the general formula (I) were always freshly prepared. The distilled water was used as a control. Measurement apparatus Tono-Pen®XL from Medtronic XOMED was used for measurement of the intraocular pressure. The intraocular pressure values were expressed in mmHg. At the first day of the experiment the solutions of the tested compounds of the general formula (I) were applied twice a day, specifically at 8.00 a.m. and 2.00 p.m. At the second day of the experiment the application was still in the 30th hour (i.e. at the second day at 2.00 p.m.). The solution of each compound was always applied in an amount of 2 drops into the right conjunctiva sac. The left eye served as a control. Into the conjunctiva sac of this eye (left), the same number of drop (2 drops) of distilled water was applied. The distilled water served as placebo. […] Standard requirements were kept in all measurements. The measurements started in the morning at 7.00 a.m. The measurement was accomplished with Tono-Pen® XL apparatus by soft perpendicular touch of the probe to the cornea of the rabbit five times successively. The measurement was accomplished on the both cornea (right and left eyes) before administration of the sample. Thus the normal values of the intraocular pressure for both the right and left eyes were obtained. Then at 8.00 a.m. 2 drops of tested compound were applied in the right eye and 2 drops of the distilled water were applied in the left eye. Further measurements were carried out after half an hour (at 8.30 a.m.), after one hour (at 9.00 a.m.), after four hours (at 12.00), after seven hours (at 3.00 p.m.), after 25 hours (on the second day at 9.00 a.m.) and after 31 hours from the application in the right eye (on the second day at 3.00 p.m). […] Moreover, 2 drops of the tested compound in the right eye and 2 drops of distilled water in the left eye were applied again in the same group of the rabbits in the first day at 2.00 p.m. (i.e. 6 hours after application of the first dose of the compound) and in the second day of the experiment at 2.00 p.m. (i.e. in the 30th hour of the experiment). Thus the changes caused by the repeated administration of the compound can be monitored. For each compound and each concentration 10 independent assays were carried out.

**Q.** For `CCN(CC)CCCNC(=O)c1ccc(S(N)(=O)=O)cc1` (as salt: ammonium) [II-4, 4-Sulfamoyl-N—(N,N-diethylaminopropyl)benzamide], which melting point is on record?
**A.** The melting point was 122 to 123 °C.

**Q.** For `NS(=O)(=O)c1ccc(S(=O)(=O)NCCCN2CCOCC2)cc1` [Compound I-6, N-(Morpholinopropyl)benzene-1,4-bis(sulphonamide)], which “Measured intraocular pressure values, RE, 0.5 h” value ([1]; I-6 2% solution, 2 drops, 0.5 h after application, individual animals n 1-10, RE average before application (N) 12.9) is on record?
**A.** The value was 7 mmHg (2×) and 8 mmHg and 9 mmHg (4×) and 11 mmHg and 12 mmHg and 15 mmHg.

**Q.** What about the “Measured intraocular pressure values, RE, 0.5 h, Average” value ([1]; I-6 2%, 0.5 h, average of 10, N RE average 12.9) of the same compound?
**A.** Its value is 9.6 mmHg.

**Q.** What about the “Measured intraocular pressure values, RE, 1 h, Average” value ([1]; I-6 2%, 1 h, average of 10, N RE average 12.9) of the same compound?
**A.** The value was 10.3 mmHg.

**Q.** What about the “Measured intraocular pressure values, RE, 1 h” value ([1]; I-6 2%, 1 h, individual animals, N RE average 12.9) of the same compound?
**A.** The value was 9 mmHg (3×) and 8 mmHg (2×) and 14 mmHg and 11 mmHg and 10 mmHg and 13 mmHg and 12 mmHg.

**Q.** What about the “Measured intraocular pressure values, RE, 4 h, Average” value ([1]; I-6 2%, 4 h, average of 10, N RE average 12.9) of the same compound?
**A.** Its value is 8.4 mmHg.

**Q.** And the “Measured intraocular pressure values, RE, 4 h” value ([1]; I-6 2%, 4 h, individual animals, N RE average 12.9)?
**A.** The value was 6 mmHg and 8 mmHg (3×) and 9 mmHg and 12 mmHg (2×) and 7 mmHg (3×).

**Q.** What about the “Measured intraocular pressure values, RE, 7 h, Average” value ([1]; I-6 2%, 7 h (second dose at 6 h), average of 10, N RE average 12.9) of the same compound?
**A.** The value was 7.3 mmHg.

**Q.** And the “Measured intraocular pressure values, RE, 7 h” value ([1]; I-6 2%, 7 h (second dose at 6 h), individual animals, N RE average 12.9)?
**A.** The value was 8 mmHg (3×) and 10 mmHg (2×) and 5 mmHg (2×) and 6 mmHg (2×) and 7 mmHg.

**Q.** And the “Measured intraocular pressure values, RE, 25 h, Average” value ([1]; I-6 2%, 25 h, average of 10, N RE average 12.9)?
**A.** The value was 10.7 mmHg.

**Q.** And the “Measured intraocular pressure values, RE, 25 h” value ([1]; I-6 2%, 25 h, individual animals, N RE average 12.9)?
**A.** Its value is 9 mmHg (4×) and 12 mmHg (4×) and 15 mmHg and 8 mmHg.

**Q.** What about the “Measured intraocular pressure values, RE, 31 h, Average” value ([1]; I-6 2%, 31 h (dose at 30 h), average of 10, N RE average 12.9) of the same compound?
**A.** The value was 10.4 mmHg.

**Q.** And the “Measured intraocular pressure values, RE, 31 h” value ([1]; I-6 2%, 31 h (dose at 30 h), individual animals, N RE average 12.9)?
**A.** The value was 10 mmHg (2×) and 9 mmHg (3×) and 11 mmHg (2×) and 13 mmHg and 8 mmHg and 14 mmHg.

**Q.** What about the “Measured intraocular pressure values, RE, 0.5 h” value ([1]; I-6 2.5% solution, 2 drops, 0.5 h, individual animals n 1-10, N RE average 15.3) of the same compound?
**A.** The value was 11 mmHg (2×) and 10 mmHg (3×) and 12 mmHg (2×) and 9 mmHg (2×) and 16 mmHg.

**Q.** What about the “Measured intraocular pressure values, RE, 0.5 h, Average” value ([1]; I-6 2.5%, 0.5 h, average of 10, N RE average 15.3) of the same compound?
**A.** The value was 11 mmHg.

**Q.** What about the “Measured intraocular pressure values, RE, 1 h, Average” value ([1]; I-6 2.5%, 1 h, average of 10, N RE average 15.3) of the same compound?
**A.** Its value is 10.5 mmHg.

**Q.** What about the “Measured intraocular pressure values, RE, 1 h” value ([1]; I-6 2.5%, 1 h, individual animals, N RE average 15.3) of the same compound?
**A.** The value was 10 mmHg (2×) and 9 mmHg (5×) and 13 mmHg and 16 mmHg and 11 mmHg.

**Q.** What about the “Measured intraocular pressure values, RE, 4 h, Average” value ([1]; I-6 2.5%, 4 h, average of 10, N RE average 15.3) of the same compound?
**A.** Its value is 10.1 mmHg.

**Q.** And the “Measured intraocular pressure values, RE, 4 h” value ([1]; I-6 2.5%, 4 h, individual animals, N RE average 15.3)?
**A.** Its value is 8 mmHg and 9 mmHg (3×) and 11 mmHg (3×) and 10 mmHg (2×) and 13 mmHg.

**Q.** What about the “Measured intraocular pressure values, RE, 7 h, Average” value ([1]; I-6 2.5%, 7 h (second dose at 6 h), average of 10, N RE average 15.3) of the same compound?
**A.** The value was 9.6 mmHg.

**Q.** And the “Measured intraocular pressure values, RE, 7 h” value ([1]; I-6 2.5%, 7 h (second dose at 6 h), individual animals, N RE average 15.3)?
**A.** Its value is 9 mmHg (4×) and 8 mmHg (2×) and 10 mmHg and 11 mmHg and 16 mmHg and 7 mmHg.

**Q.** What about the “Measured intraocular pressure values, RE, 25 h, Average” value ([1]; I-6 2.5%, 25 h, average of 10, N RE average 15.3) of the same compound?
**A.** The value was 13 mmHg.

**Q.** And the “Measured intraocular pressure values, RE, 25 h” value ([1]; I-6 2.5%, 25 h, individual animals, N RE average 15.3)?
**A.** Its value is 12 mmHg (3×) and 13 mmHg (3×) and 15 mmHg (2×) and 14 mmHg and 11 mmHg.

**Q.** And the “Measured intraocular pressure values, RE, 31 h, Average” value ([1]; I-6 2.5%, 31 h (dose at 30 h), average of 10, N RE average 15.3)?
**A.** Its value is 11.2 mmHg.

**Q.** And the “Measured intraocular pressure values, RE, 31 h” value ([1]; I-6 2.5%, 31 h (dose at 30 h), individual animals, N RE average 15.3)?
**A.** Its value is 9 mmHg (4×) and 10 mmHg (2×) and 16 mmHg and 13 mmHg and 15 mmHg and 12 mmHg.

**Q.** Which “Measured intraocular pressure values, PO, 0.5 h” value ([1]; II-6 1% solution, 2 drops, treated right eye (PO), 0.5 h, individual animals n 1-10, N PO average 15.8) does the source give for `NS(=O)(=O)c1ccc(C(=O)NCCCN2CCOCC2)cc1` [II-6, 4-Sulfamoyl-N-(morpholinopropyl)benzamide] here?
**A.** Its value is 8 mmHg and 11 mmHg (2×) and 10 mmHg (3×) and 9 mmHg (2×) and 14 mmHg (2×).

**Q.** What about the “Measured intraocular pressure values, PO, 0.5 h, Average” value ([1]; II-6 1%, treated right eye (PO), 0.5 h, average of 10, N PO average 15.8) of the same compound?
**A.** Its value is 10.6 mmHg.

**Q.** What about the “Measured intraocular pressure values, PO, 1 h, Average” value ([1]; II-6 1%, treated right eye (PO), 1 h, average of 10, N PO average 15.8) of the same compound?
**A.** The value was 10.4 mmHg.

**Q.** And the “Measured intraocular pressure values, PO, 1 h” value ([1]; II-6 1%, treated right eye (PO), 1 h, individual animals, N PO average 15.8)?
**A.** The value was 7 mmHg and 10 mmHg (3×) and 14 mmHg and 9 mmHg and 8 mmHg and 12 mmHg (3×).

**Q.** What about the “Measured intraocular pressure values, PO, 4 h, Average” value ([1]; II-6 1%, treated right eye (PO), 4 h, average of 10, N PO average 15.8) of the same compound?
**A.** The value was 9.6 mmHg.

**Q.** And the “Measured intraocular pressure values, PO, 4 h” value ([1]; II-6 1%, treated right eye (PO), 4 h, individual animals, N PO average 15.8)?
**A.** The value was 12 mmHg and 10 mmHg and 9 mmHg and 11 mmHg (2×) and 8 mmHg (3×) and 6 mmHg and 13 mmHg.

**Q.** What about the “Measured intraocular pressure values, PO, 7 h, Average” value ([1]; II-6 1%, treated right eye (PO), 7 h (second dose at 6 h), average of 10, N PO average 15.8) of the same compound?
**A.** Its value is 9.1 mmHg.

**Q.** What about the “Measured intraocular pressure values, PO, 7 h” value ([1]; II-6 1%, treated right eye (PO), 7 h (second dose at 6 h), individual animals, N PO average 15.8) of the same compound?
**A.** Its value is 8 mmHg (2×) and 9 mmHg (3×) and 11 mmHg and 6 mmHg (2×) and 13 mmHg and 12 mmHg.

**Q.** What about the “Measured intraocular pressure values, PO, 25 h, Average” value ([1]; II-6 1%, treated right eye (PO), 25 h, average of 10, N PO average 15.8) of the same compound?
**A.** The value was 13.7 mmHg.

**Q.** What about the “Measured intraocular pressure values, PO, 25 h” value ([1]; II-6 1%, treated right eye (PO), 25 h, individual animals, N PO average 15.8) of the same compound?
**A.** The value was 13 mmHg (3×) and 16 mmHg (2×) and 18 mmHg and 12 mmHg (4×).

**Q.** What about the “Measured intraocular pressure values, PO, 31 h, Average” value ([1]; II-6 1%, treated right eye (PO), 31 h (dose at 30 h), average of 10, N PO average 15.8) of the same compound?
**A.** The value was 11.1 mmHg.

**Q.** What about the “Measured intraocular pressure values, PO, 31 h” value ([1]; II-6 1%, treated right eye (PO), 31 h (dose at 30 h), individual animals, N PO average 15.8) of the same compound?
**A.** Its value is 10 mmHg (3×) and 12 mmHg (2×) and 9 mmHg (2×) and 11 mmHg and 14 mmHg (2×).

Reference: patent publication US8193184B2, “Substituted sulphonamides, process for their preparation, pharmaceutical composition comprising thereof and their use” (Unimed Pharma, SPOL, S.R.O., priority 2007, dated 2012)
